In patent US12616713B2, “Methods for enhancing vascular density” (priority 2016, dated 2026):

What was measured:
[1] = system: HAECs; assay: Spheroid sprouting assay, HAECs; assay type: cell-based, human; conditions: VEGF 50 ng/mL
Protocol: ECs spheroids were generated as described previously (Korff and Augustin, 1998, J Cell Biol 143, 1341-1352). ECs (1000 cells per spheroid) were suspended in EGM-2 medium containing 20% methocel (viscosity: 4000 cps, Sigma) and seeded in non-adherent round-bottom 96-well plates (Sigma). Under these conditions all suspended cells contributed to the formation of a single spheroid. The spheroids were harvested after 24 h embedded into collagen gels. Sprouting was initiated by adding C2C12 CM or EBM-2 medium containing VEGF (50 ng/mL). NMN (0.5 mM), NaHS (0.1 mM), DAPT (20 μM, Cayman Chemical) or SU5416 (10 μM, Sigma) were added to the media wherever mentioned. Angiogenic activity was quantified by measuring the sprout length that had grown out of each spheroid analyzing 8-10 spheroids per group.

[2] = system: HUVECs; assay: Wound scratch assay, HUVECs; assay type: cell-based, human; conditions: 6 h
Protocol: ECs were cultured until forming a confluent monolayer and a scratch was made using a 200 μL pipette tip. Then the cells were allowed to migrate+/−NaHS (0.1 mM) and +/−NMN (0.5 mM) in EGM-2 medium for 6 hrs. Images were taken at the same location using a brightfield inverted microscope (Olympus 2467) every 2 h. The area of gap closure was calculated using ImageJ software. In some experiments, HUVECs were transduced with Scr or SIRT1 siRNA and cultured until forming a confluent monolayer. The cells were exposed to H2O2 (150 μM) for 1 h and a scratch was made using a 200 μL pipette tip. Then the cells were allowed to migrate with PBS (vehicle), NaHS (100 μM) and/or NMN (500 μM) in EGM-2 medium for 6 h. Images were taken at the same location using a brightfield inverted microscope (Olympus 2467) every 2 h. The area of gap closure was calculated using ImageJ software.

[3] = system: NAD^+; assay: NAD+ levels in HUVECs; assay type: cell-based, human; conditions: increasing doses of NaHS, 24 hrs
Protocol: Levels of NAD^+ and NADH levels were measured in EC and muscle homogenates using commercially available kit (NAD-NADH Glo, Promega) according to manufacturer's instructions. Alternatively, NAD^+ levels in muscle and liver were measured by assay in-house developed method (Uddin et al., 2016, Front Pharmacol 7, 258). In brief, liver and gastrocnemius samples were homogenized in extraction buffer (10 mM Tris-HCl, 0.5% TritonX-100, 10 mM Nicotinamide, pH7.4) and then centrifuged (12,000×g for 5 min at 4° C.), after which an aliquot of supernatant was taken for protein quantification. After phenol:chloroform:isoamylalcohol (25:24:1) and chloroform extractions the supernatant was separated in two aliquots. One was used to measure total NAD. The other aliquot was acidified with HCl, and then neutralized with NaOH on ice to quantify NAD^+. Samples were mixed in a 96-well plate samples were mixed with alcohol dehydrogenase (ADH) at room temperature. Total NADH and NAD^+ were quantified using a Bio-Rad Imark microplate reader.

[4] = system: SIRT1; assay: SIRT1 protein levels in HUVECs (Western blot); assay type: cell-based, human; conditions: NaHS 0.1 mM and/or NMN 0.5 mM
Protocol: SDS-PAGE and Western blot analysis were performed according to standard procedures and detected with the ECL detection kit (Bio-rad, Australia). For Western blot analysis antibodies directed against SIRT1 (Sigma), SIRT3 (CST), SIRT6 (SantaCruz), eNOS (Cell Signaling Technology or CST), cleaved Notch1 (CST), total OXPHOS cocktail (Abcam), PGC-1α (Millipore), VEGF (Abcam), VEGFR2 (Abcam), phospho-VEGFR2 (Millipore), Actin (Cell Signaling Technology), Tubulin (Sigma), 14-3-3 (Cell Signaling Technology), GAPDH (SantaCruz) were used. Quantification of band intensities by densitometry was carried out using ImageJ software.

[5] = system: HUVECs; assay: Seahorse analysis of oxygen consumption rate; assay type: cell-based, human; conditions: NaHS 100 μM, NMN 500 μM
Protocol: Oxygen consumption rates were measured in accordance with manufacturer instructions using Seahorse XF96 analyzer (Seahorse Bioscience). Briefly, 40,000 HUVECs were plated onto XF96 plates and incubated overnight at 37° C./5% CO2. Next day, the media was replaced with XF assay media (DMEM), supplemented with glucose (1 g/L), glutamate (2 mM) and pyruvate (1 mM) and the pH was adjusted to 7.4. NaHS (100 μM) and/or NMN (500 μM) were added at the start of the experiment. Oxygen consumption measurements were made approximately every 8 minutes under basal conditions, and after the addition of oligomycin (1 μM). Experiments were replicated in six wells and averaged for each experimental condition.

[6] = target: NAMPT (Homo sapiens, UniProt P43490); conditions: in vitro (Wang et al. 2014); cited from earlier work
Sequence of NAMPT (P43490 whole entry, species assumed): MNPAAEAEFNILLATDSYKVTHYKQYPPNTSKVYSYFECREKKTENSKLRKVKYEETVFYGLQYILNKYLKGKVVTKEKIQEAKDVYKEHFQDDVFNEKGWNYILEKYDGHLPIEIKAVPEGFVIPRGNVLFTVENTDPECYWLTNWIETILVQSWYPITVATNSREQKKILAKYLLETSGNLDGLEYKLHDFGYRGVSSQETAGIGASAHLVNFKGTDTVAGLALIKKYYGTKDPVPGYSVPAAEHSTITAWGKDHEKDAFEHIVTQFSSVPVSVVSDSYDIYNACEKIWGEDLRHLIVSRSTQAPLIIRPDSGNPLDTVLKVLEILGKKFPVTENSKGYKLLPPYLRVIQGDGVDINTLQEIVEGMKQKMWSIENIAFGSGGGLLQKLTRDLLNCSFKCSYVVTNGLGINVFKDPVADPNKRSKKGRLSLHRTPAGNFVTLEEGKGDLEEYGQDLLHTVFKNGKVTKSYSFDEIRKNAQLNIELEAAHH

[7] = target: T1, CD38 (Homo sapiens, UniProt P28907); conditions: in vitro (Esande et al. 2013); cited from earlier work
T1 sequence (P28907 1-300): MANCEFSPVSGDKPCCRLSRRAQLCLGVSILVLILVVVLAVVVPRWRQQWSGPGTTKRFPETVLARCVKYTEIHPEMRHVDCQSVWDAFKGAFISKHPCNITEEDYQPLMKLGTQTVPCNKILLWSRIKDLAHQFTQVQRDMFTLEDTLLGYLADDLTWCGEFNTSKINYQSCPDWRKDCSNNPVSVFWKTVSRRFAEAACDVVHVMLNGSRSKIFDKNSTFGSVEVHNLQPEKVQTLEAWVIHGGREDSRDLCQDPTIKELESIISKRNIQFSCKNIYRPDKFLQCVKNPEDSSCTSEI

C[C@H](NC(=O)Cc1cc(F)cc(F)c1)C(=O)N[C@H](C(=O)OC(C)(C)C)c1ccccc1 [DAPT, N—[N-(3,5-Difluorophenacetyl)-L-alanyl]-S-phenylglycine t-butyl ester, reference compound]
sprout length of spheroids ([1]; DAPT 20 μM, NT or SIRT1 siRNA): increased sprout length irrespective of SIRT1 levels

[Na+].[SH-] [NaHS, sodium hydrosulfide]
cell migration in a scratch assay ([2]; NT or SIRT1 siRNA HUVECs, NaHS 0.1 mM, independent of VEGF but dependent on SIRT1): increased cell migration | cell migration (percentage of closed gaps) ([2]; Scr or SIRT1 siRNA HUVECs, H2O2 150 μM 1 h, NaHS 100 μM and/or NMN 500 μM): increased cell migration in a SIRT1-dependent manner | intracellular NAD^+ levels in ECs [3]: raised intracellular NAD^+ levels in ECs in a dose dependent manner | SIRT1 protein levels [4]: increased SIRT1 protein levels | basal OCR [5]: lowered the basal OCR

OC(CNc1ccccc1)Cn1c2ccc(Br)cc2c2cc(Br)ccc21 (stereo not shown) [P7C3]
activity of NAMPT [6]: enhances activity of NAMPT in vitro

Cc1cc(C)c(/C=C2\C(=O)Nc3ccccc32)[nH]1 [SU5416, reference compound]
sprouting of spheroids ([1]; SU5416 10 μM): completely blocked sprouting

O=c1cc(-c2ccc(O)cc2)oc2cc(O)cc(O)c12 [apigenin, 5,7-dihydroxy-2-(4-hydroxyphenyl)-4H-1-benzopyran-4-one]
CD38 activity [7]: inhibitors of CD38 activity in vitro

O=c1c(O)c(-c2ccc(O)c(O)c2)oc2cc(O)cc(O)c12 [quercetin, 2-(3,4-dihydroxyphenyl)-3,5,7-trihydroxy-4H-chromen-4-one]
CD38 activity [7]: inhibitors of CD38 activity in vitro
